The record followed here is patent US10202379B2, “Substituted polycyclic carbamoyl pyridone derivative prodrug” (priority 2010, dated 2019).

Data set [1] has as its target Cap-dependant Endonuclease (CEN) (RNP fraction, PB1-PB2-PA complex) (Influenza A virus (strain A/Wilson-Smith/1933 H1N1) (Influenza A virus (strain A/WS/1933 H1N1)), UniProt P15659). The data set is classed as biochemical, influenza A/WSN/33 virus.
For another data set, the system named is influenza virus. The experiment in a line: microbe, parasite or virus in culture. The data set is classed as cell-based. Conditions: MDBK or MDCK cells, 3 days, WST-8.
Data set [2] in a line: BA test (oral absorbability). The data set is classed as in vivo. The following applies: rat; for Parent compound BA(%): oral administration of parent compound; for plasma concentration of the prodrug itself: oral administration, non-fasting, all plasma samples. How it is done: Experimental Material and Method for Studying Oral Absorbability
(1) Animal to be used: A mouse or rat was used.
(2) Rearing conditions: Mouse and rat ingested a solid feed and sterilized tap water ad-libitum.
(3) Dose and setting of grouping: A predetermined dose was administered orally or intravenously. A group was set as follows. (a dose varied for every compound)
Oral administration 1 to 30 mg/kg (n=2 to 3)
Intravenous administration 0.5 to 10 mg/kg (n=2 to 3)
(4) Preparation of administration solution: For oral administration, a solution or suspension was administered. For intravenous administration, a compound which was solubilized was administered.
(5) Administration method: For oral administration, the administration solution was forcibly administered to the stomach by oral sonde. For intravenous administration, the administration solution was administered with a syringe equipped with an injection needle through a tail vein.
(6) Assessment item: Blood was collected with time, and a plasma drug concentration was measured using LC/MS/MS.
(7) Statistical analysis: Regarding plasma concentration transition, an area under a plasma concentration-time curve (AUC) was calculated using a non-linear minimum square method program WinNonlin (registered trademark), and bioavailability (BA) was calculated from AUC of an oral-administered group and an intervenous-administered group.

The subject of data set [3] is influenza virus (A/WS/33, A/Victoria/3/75 or B/Maryland/1/59). It counts as in vivo. The following applies: oral, infected mouse, 14 days after virus infection.
[4] abbreviates: unidentified influenza virus, 72 h, read-out: CPE EC50, parent compounds (Reference examples).
Where [5] appears, read: parent compounds (Reference examples), room temperature, 60 minutes.

Where two headings read alike, the source gives them in different places.

Take `C[C@@H](N1CN([C@H]2c3cccc(F)c3CSc3c(Cl)cccc32)n2ccc(=O)c(O)c2C1=O)C(F)(F)F` [Reference example 594]: the IC50 in data set [1] turned out to be 11 nM. The EC50 in the data set with influenza virus (setting [4]) turned out to be 4 nM. Also, in data set [2], the “Parent compound BA(%)” value was 5.0%.

Turning to `CC(=O)OCOc1c2n(ccc1=O)N(C1c3ccccc3CSc3ccccc31)CN(C(C)C)C2=O` (stereo not drawn) [Example 114], the “plasma concentration of the prodrug itself” value in data set [2] is “a determination limit or less”.

For the compound `CC(=O)Oc1c2n(ccc1=O)N(C1c3ccccc3CSc3ccccc31)CN(C(C)C)C2=O` (stereo not drawn) [Example 204], the “plasma concentration of the prodrug itself” value in data set [2] is on record as “a determination limit or less”.

Consider `CC(C)N1CN(C2c3ccccc3CSc3ccccc32)n2ccc(=O)c(O)c2C1=O` (stereo not drawn) [Reference example 301], for which the “Parent compound BA(%)” value in data set [2] stood at 2.3%.

Take `C[C@@H](N1CN([C@@H]2c3ccccc3SCc3c(F)cccc32)n2ccc(=O)c(O)c2C1=O)C(F)(F)F` [Reference example 445]: in data set [1] (setting [5]), the IC50 is 13 nM. For the same compound, the EC50 in the data set with influenza virus (setting [4]) stood at 4 nM. In addition, in data set [2], the “Parent compound BA(%)” value is reported as 12.1%.

As for `CC(=O)Oc1c2n(ccc1=O)N([C@H]1c3ccccc3CSc3ccccc31)CN([C@H](C)C(F)(F)F)C2=O` [Example 20], the “ED50 of single dose (dose for 50% lethality inhibition)” value in data set [3] was found to be 4.4 mg/kg/day.

With `C[C@@H](N1CN([C@@H]2c3ccccc3SCc3cccc(Cl)c32)n2ccc(=O)c(O)c2C1=O)C(F)(F)F` [Reference example 429], the EC50 with influenza virus (setting [4]) turned out to be 4 nM. Besides, in data set [2], the “Parent compound BA(%)” value worked out at 13.3%.

Regarding `Cc1cccc2c1SCc1c(F)cccc1[C@@H]2N1CN([C@H](C)C(F)(F)F)C(=O)c2c(O)c(=O)ccn21` [Reference example 623], the IC50 in data set [1] (setting [5]) stood at 21 nM. In addition, the EC50 with influenza virus (setting [4]) stood at 3 nM.

For `C[C@@H]1Sc2ccccc2[C@@H](N2CN([C@H](C)C(F)(F)F)C(=O)c3c(O)c(=O)ccn32)c2c(Cl)cccc21` [compound 748], the IC50 in data set [1] (setting [5]) is 24.2 nM. For the same compound, the EC50 in the data set with influenza virus (setting [4]) is 9.14 nM.

On to `C[C@@H](N1CN([C@H]2c3ccccc3SCc3cccc(N(C)C)c32)n2ccc(=O)c(O)c2C1=O)C(F)(F)F` [compound 753], for which the IC50 in data set [1] (setting [5]) stood at 109 nM. Moreover, the concentration giving a half-maximal response (EC50) with influenza virus (setting [4]) was 18.5 nM.

Regarding `Cc1cn2c(c(O)c1=O)C(=O)N([C@H](C)C(F)(F)F)CN2[C@@H]1c2ccccc2SCc2c1ccc(F)c2F` [compound 704], the IC50 in data set [1] (setting [5]) amounted to 11.1 nM. For the same compound, the EC50 in the data set on influenza virus (setting [4]) amounted to 3.5 nM.

On to `CC(=O)c1cn2c(c(O)c1=O)C(=O)N([C@H](C)C(F)(F)F)CN2[C@@H]1c2ccccc2SCc2c1ccc(F)c2F` [compound 706], for which the IC50 in data set [1] (setting [5]) was 18.6 nM. For the same compound, the EC50 in the data set on influenza virus (setting [4]) worked out at 7.19 nM.

For the compound `C[C@@H](N1CN([C@H]2c3ccccc3CCc3c(F)cccc32)n2ccc(=O)c(O)c2C1=O)C(F)(F)F` [Reference example 628], in data set [1] (setting [5]), the IC50 was found to be 43 nM. In addition, in the data set with influenza virus (setting [4]), the EC50 came to 13 nM.

Turning to `C[C@@H](N1CN([C@@H]2c3ccccc3SCc3cccc(Br)c32)n2ccc(=O)c(O)c2C1=O)C(F)(F)F` [Reference example 654], in data set [1] (setting [5]), the half-inhibitory concentration (IC50) worked out at 8 nM. Moreover, the EC50 in the data set on influenza virus (setting [4]) turned out to be 1 nM.

As for `C[C@@H](N1CN([C@@H]2c3ccccc3SCc3c(Cl)cccc32)n2cc(CO)c(=O)c(O)c2C1=O)C(F)(F)F` [compound 719], the IC50 in data set [1] (setting [5]) amounted to 2.6 nM. Further, the EC50 in the data set with influenza virus (setting [4]) was found to be 8.36 nM.

Regarding `C[C@@H](N1CN([C@H]2c3ccc(F)cc3CSc3ccccc32)n2cc(B(O)O)c(=O)c(O)c2C1=O)C(F)(F)F` [compound 708], in data set [1] (setting [5]), the half-inhibitory concentration (IC50) amounted to 46.5 nM. In the data set on influenza virus (setting [4]), the EC50 turned out to be 8.49 nM.

In data set [1], `C[C@@H](N1CN([C@@H]2c3ccccc3SCc3c2ccc(F)c3F)n2cc(Cl)c(=O)c(O)c2C1=O)C(F)(F)F` [compound 716] came in with a concentration for half-maximal inhibition (IC50) of 5.54 nM. Further, in the data set on influenza virus (setting [4]), the EC50 worked out at 5.6 nM.

As to `C[C@@H](N1CN([C@@H]2c3ccccc3SCc3c2ccc(F)c3F)n2cc(B(O)O)c(=O)c(O)c2C1=O)C(F)(F)F` [compound 709], in data set [1] (setting [5]), the IC50 was 34.3 nM. The concentration for a half-maximal effect (EC50) in the data set on influenza virus (setting [4]) worked out at 7.09 nM.

Regarding `C[C@@H](N1CN([C@H]2c3ccccc3SCc3cccc(Br)c32)n2ccc(=O)c(O)c2C1=O)C(F)(F)F` [Reference example 661], the IC50 in data set [1] (setting [5]) worked out at 135 nM. Further, the 50% effective concentration (EC50) in the data set with influenza virus (setting [4]) is 14 nM.

`Cc1cccc2c1[C@H](N1CN([C@H](C)C(F)(F)F)C(=O)c3c(O)c(=O)ccn31)c1ccccc1SC2` [Reference example 665]: the concentration for half-maximal inhibition (IC50) in data set [1] (setting [5]) turned out to be 18 nM. Also, the EC50 in the data set on influenza virus (setting [4]) worked out at 5 nM.

On to `O=C1c2c(O)c(=O)ccn2N(C2c3ccccc3CSc3ccccc32)CN1C1COC1` (stereo not drawn) [Reference example 609], for which the IC50 in data set [1] (setting [5]) came out at 53 nM. For the same compound, the EC50 in the data set on influenza virus (setting [4]) came out at 25 nM.

Turning to `O=C1c2c(O)c(=O)ccn2N(C2c3ccccc3CSc3ccccc32)CN1Cc1ncns1` (stereo not drawn) [Reference example 316], in data set [1] (setting [5]), the IC50 is 69 nM. Moreover, in the data set on influenza virus (setting [4]), the EC50 came out at 83 nM.

Turning to `C[C@@H](N1CN([C@@H]2c3ccc(Cl)cc3SCc3c(F)cccc32)n2ccc(=O)c(O)c2C1=O)C(F)(F)F` [Reference example 663], in data set [1] (setting [5]), the IC50 worked out at 31 nM. The EC50 in the data set with influenza virus (setting [4]) worked out at 18 nM.

On to `Cc1cccc2c1CSc1c(F)cccc1[C@H]2N1CN([C@H](C)C(F)(F)F)C(=O)c2c(O)c(=O)ccn21` [Reference example 617], for which the concentration for half-maximal inhibition (IC50) in data set [1] (setting [5]) turned out to be 53 nM. For the same compound, the EC50 in the data set on influenza virus (setting [4]) worked out at 17 nM.

On to `C[C@@H](N1CN([C@@H]2c3ccc(F)cc3SCc3cccc(F)c32)n2ccc(=O)c(O)c2C1=O)C(F)(F)F` [Reference example 598], for which the IC50 in data set [1] (setting [5]) was determined as 16 nM. Besides, in the data set on influenza virus (setting [4]), the EC50 amounted to 5 nM.

`C[C@@H](N1CN([C@@H]2c3cccc(F)c3SCc3cccc(Cl)c32)n2ccc(=O)c(O)c2C1=O)C(F)(F)F` [Reference example 621]: the IC50 in data set [1] is 6 nM. In addition, the EC50 in the data set with influenza virus (setting [4]) worked out at 2 nM.

For `COC(=O)c1cn2c(c(O)c1=O)C(=O)N1CCCCN1C2C(c1ccccc1)c1ccccc1` (stereo not drawn) [Reference example 506], in data set [1] (setting [5]), the IC50 is 247 nM. In the data set on influenza virus (setting [4]), the half-maximal effective concentration (EC50) turned out to be 1620 nM.

For the compound `C[C@@H](N1CN([C@@H]2c3ccccc3SCc3cccc(Cl)c32)n2cc(CO)c(=O)c(O)c2C1=O)C(F)(F)F` [compound 666], the midpoint of inhibition in data set [1], the IC50, lay at 3.36 nM. In addition, the EC50 with influenza virus (parent compounds (Reference examples), read-out: CPE EC50) was 3.91 nM.

As to `C[C@@H](N1CN([C@H]2c3ccccc3CSc3cccc(F)c32)n2ccc(=O)c(O)c2C1=O)C(F)(F)F` [Reference example 603], the 50% inhibitory concentration (IC50) in data set [1] (setting [5]) is 37 nM. The EC50 in the data set with influenza virus (setting [4]) came to 15 nM.

With `C[C@@H](N1CN([C@H]2c3ccccc3CCc3cccc(F)c32)n2ccc(=O)c(O)c2C1=O)C(F)(F)F` [Reference example 633], the IC50 in data set [1] (setting [5]) came out at 53 nM. For the same compound, in the data set on influenza virus (setting [4]), the EC50 came to 22 nM.

As to `C[C@@H](N1CN([C@@H]2c3cccc(Cl)c3SCc3cccc(F)c32)n2ccc(=O)c(O)c2C1=O)C(F)(F)F` [Reference example 601], the IC50 in data set [1] (setting [5]) was determined as 25 nM. In addition, the half-maximal effective concentration (EC50) in the data set on influenza virus (setting [4]) came out at 8 nM.
